# System: recombinant MNV I109V mutant
# Assay: Antiviral effect against recombinant MNV I109V mutant infection of BV-2 cells (TCID50)
# Format: cell-based, murine norovirus
# Conditions: MOIs 0.1 and 1
# Method: BV-2 cells were infected with recombinant WT MNV or the MNV I109V mutant at an MOI of 0.1 or 1 for 1 h in the CO2 incubator at 37°C. After incubation, the supernatant was removed and the cells were washed twice with PBS, and then complete DMEM containing various concentrations of rupintrivir or 2CMC was added to the cells. After 24 h for incubation, the virus titers of the supernatant were determined by measurement of the TCID50. On the basis of the TCID50, the 90% effective concentration (EC90) values of rupintrivir and 2CMC were calculated using XLfit (version 5.3) software.
structure (smiles),measurement,value
"C[C@@]1(O)[C@H](O)[C@@H](CO)O[C@H]1n1ccc(N)nc1=O [2CMC, 2-C-methylcytidine]",difference in EC90 values between I109V and WT viruses,no significant difference
